In the assay the target is STAT3 (Homo sapiens, UniProt P40763). Nature of the assay: biotin pull-down (MDA-MB-231), LC/MS identification and STAT3 Western blot. In kind it is cell-based. From the text:
biotin pull-down (MDA-MB-231), LC/MS identification and STAT3 Western blot on STAT3 | identified the proteins that bind to biotin–ZSW specifically using LC/MS. We determined that STAT3 was specifically stripped

Molecules are shown by their SMILES.

Sequence of STAT3 (P40763 2-770): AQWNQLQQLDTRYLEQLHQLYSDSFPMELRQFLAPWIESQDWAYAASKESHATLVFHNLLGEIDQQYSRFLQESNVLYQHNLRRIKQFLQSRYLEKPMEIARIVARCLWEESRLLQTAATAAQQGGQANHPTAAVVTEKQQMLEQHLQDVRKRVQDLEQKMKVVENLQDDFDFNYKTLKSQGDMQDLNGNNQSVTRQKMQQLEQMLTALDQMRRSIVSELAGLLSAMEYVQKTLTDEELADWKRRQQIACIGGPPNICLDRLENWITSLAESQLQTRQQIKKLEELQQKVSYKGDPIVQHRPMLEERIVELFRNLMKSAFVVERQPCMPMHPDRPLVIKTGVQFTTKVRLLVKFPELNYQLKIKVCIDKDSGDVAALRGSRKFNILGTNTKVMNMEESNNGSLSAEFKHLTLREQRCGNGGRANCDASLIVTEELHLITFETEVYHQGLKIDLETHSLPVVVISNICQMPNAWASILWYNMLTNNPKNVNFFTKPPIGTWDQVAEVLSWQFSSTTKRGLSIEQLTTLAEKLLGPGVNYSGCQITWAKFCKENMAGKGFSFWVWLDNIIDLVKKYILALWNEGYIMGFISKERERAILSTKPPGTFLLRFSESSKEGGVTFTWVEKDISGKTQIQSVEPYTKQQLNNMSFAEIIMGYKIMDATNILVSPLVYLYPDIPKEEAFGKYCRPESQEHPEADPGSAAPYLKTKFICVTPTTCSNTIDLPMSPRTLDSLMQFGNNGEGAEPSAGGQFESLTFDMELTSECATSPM

For the compound `COc1cc(-c2noc3c2C(=O)c2cccnc2C3=O)cc(OC)c1OCCCOC(=O)CCCCC1SCC2NC(=O)NC21` (stereo not shown) [biotin–ZSW], the “biotin pull-down (MDA-MB-231), LC/MS identification and STAT3 Western blot” value is on record as “identified the proteins that bind to biotin–ZSW specifically using LC/MS. We determined that STAT3 was specifically stripped”.

(Values after article PMC10177496, “An Isoxazoloquinone Derivative Inhibits Tumor Growth by Targeting STAT3 and Triggering Its Ubiquitin-Dependent Degradation” (Cancers, 2023).)
